# Read-outs that look alike come from different tables or passages of the source.
# How the values were obtained:
# Assay type in all cases: cell-based
# HL-60(TB) = conditions: 2 days
# KM12 = assay: SRB growth assay, 2 days exposure, colon cancer
# Experimental: (§1) Arsenic trioxide (1 mg/ml, 10 mg/ampoule, manufactured by Taylor Pharmaceuticals, Decatur, Ill.) was tested at five concentrations each at 10-fold dilutions, i.e., 10^−5, 10^−6, 10^−7, 10^−8 and 10^−9 μg/ml.
# (§2) The in vitro tests were performed by incubating the test cells in the presence of the indicated concentration of arsenic trioxide under standard culture conditions for a designated period of time, which is followed by a sulforhodamine B (SRB) protein assay to estimate cell viability or growth. The cell lines are organized into subpanels according to the origin of the cell lines, e.g., leukemia, breast cancer, etc. A description of the cell lines and method of testing is described in Monk et al. (1997, Anticancer Drug Des. 12:533-41) and Weinstein et al., (1997, Science 275:343-9), which are incorporated herein in their entirety.
# (§3) The measurement of an effect is expressed in Percentage Growth (PG). The measured effect of the compound on a cell line is calculated according to one or the other of the following two expressions: If (Mean ODtest−Mean ODzero)≧0. then PG=100×(Mean ODtest−Mean ODzero)/(Mean ODctrl−Mean ODzero) If (Mean ODtest−Mean ODzero)<0. then PG=100×(Mean ODtest−Mean ODzero)/(Mean ODzero where: • Mean ODzero=the average of optical density measurements of SRB-derived color just before exposure of cells to the test compounds; • Mean ODtest=the average of optical density measurements of SRB-derived color after exposure of cells to the test compound for a designated period of time; and • Mean ODctrl=the average of optical density measurements of SRB-derived color after with no exposure of cells to the test compound for a designated period of time
# (§4) The first two columns describe the subpanel (e.g., leukemia) and cell line (e.g., CCRF-CEM) involved. The next two columns list the Mean ODzero and Mean ODctrl; the next five columns list the Mean ODtest for each of five different concentrations. Each concentration is expressed as the log10 (molar or μg/ml). The next five columns list the calculated PGs for each concentration. The response parameters GI50, TGI and LC50 are interpolated values representing the concentrations at which the PG is +50, 0, and −50, respectively. Sometimes these response parameters cannot be obtained by interpolation. If, for instance, all of the PGs in a given row exceed +50, then none of the three parameters can be obtained by interpolation. In such a case, the value given for each response parameter is the highest concentration tested and is preceded by a “>” sign. This practice is extended similarly to the other possible situations where a response parameter cannot be obtained by interpolation.
# (§5) In the first set, the cells from 56 different cancer cell lines were exposed to five concentrations of arsenic trioxide continuously for two days prior to performing the SRB assay. In the second set, the cells from 50 different cell lines (a subset of the first 56 cell lines, plus the renal cancer cell line 786-0) were exposed continuously for six days prior to the SRB assay.
# SW-620 = assay: SRB growth assay, 2 days exposure, colon cancer
# Experimental: as §1, §2, §3, §4, §5
# HCT-116 = assay: SRB growth assay, 2 days exposure, colon cancer
# Experimental: as §1, §2, §3, §4, §5
# COLO 205 = assay: SRB growth assay, 2 days exposure, colon cancer
# Experimental: as §1, §2, §3, §4, §5
# HCT-15 = assay: SRB growth assay, 2 days exposure, colon cancer
# Experimental: as §1, §2, §3, §4, §5
# HT29 = assay: SRB growth assay, 2 days exposure, colon cancer
# Experimental: as §1, §2, §3, §4, §5
# SNB-75 = assay: SRB growth assay, 6 days exposure, CNS cancer; conditions: SNB-75, 6 days
# Experimental: as §1, §2, §3, §4, §5
# U251 = assay: SRB growth assay, 6 days exposure, CNS cancer; conditions: U251, 6 days
# Experimental: as §1, §2, §3, §4, §5
# SF-295 = assay: SRB growth assay, 6 days exposure, CNS cancer; conditions: SF-295, 6 days
# Experimental: as §1, §2, §3, §4, §5
# SF-268 = assay: SRB growth assay, 6 days exposure, CNS cancer; conditions: SF-268, 6 days
# Experimental: as §1, §2, §3, §4, §5
substance,measurement,setting,value
arsenic trioxide,TGI,HL-60(TB),0.0103 ng/mL
same,Percent Growth,HL-60(TB); log10 conc −4.9,−9%
same,Percent Growth,HL-60(TB); log10 conc −5.9,90%
same,Percent Growth,HL-60(TB); log10 conc −6.9,102%
same,Percent Growth,HL-60(TB); log10 conc −7.9,92%
same,Percent Growth,HL-60(TB); log10 conc −8.9,101%
same,TGI,KM12,>0.0126 ng/mL
same,Percent Growth,KM12; log10 conc −4.9,68%
same,Percent Growth,KM12; log10 conc −5.9,99%
same,Percent Growth,KM12; log10 conc −6.9,106%
same,Percent Growth,KM12; log10 conc −7.9,98%
same,Percent Growth,KM12; log10 conc −8.9,101%
same,TGI,SW-620,>0.0126 ng/mL
same,Percent Growth,SW-620; log10 conc −4.9,16%
same,Percent Growth,SW-620; log10 conc −5.9,85%
same,Percent Growth,SW-620; log10 conc −6.9,96%
same,Percent Growth,SW-620; log10 conc −7.9,98%
same,Percent Growth,SW-620; log10 conc −8.9,102%
same,TGI,HCT-116,>0.0126 ng/mL
same,Percent Growth,HCT-116; log10 conc −4.9,30%
same,Percent Growth,HCT-116; log10 conc −5.9,86%
same,Percent Growth,HCT-116; log10 conc −6.9,93%
same,Percent Growth,HCT-116; log10 conc −7.9,93%
same,Percent Growth,HCT-116; log10 conc −8.9,95%
same,TGI,COLO 205,>0.0126 ng/mL
same,Percent Growth,COLO 205; log10 conc −4.9,57%
same,Percent Growth,COLO 205; log10 conc −5.9,104%
same,Percent Growth,COLO 205; log10 conc −6.9,117%
same,Percent Growth,COLO 205; log10 conc −7.9,102%
same,Percent Growth,COLO 205; log10 conc −8.9,103%
same,TGI,HCT-15,>0.0126 ng/mL
same,Percent Growth,HCT-15; log10 conc −4.9,20%
same,Percent Growth,HCT-15; log10 conc −5.9,93%
same,Percent Growth,HCT-15; log10 conc −6.9,104%
same,Percent Growth,HCT-15; log10 conc −7.9,100%
same,Percent Growth,HCT-15; log10 conc −8.9,113%
same,TGI,HT29,>0.0126 ng/mL
same,Percent Growth,HT29; log10 conc −4.9,15%
same,Percent Growth,HT29; log10 conc −5.9,80%
same,Percent Growth,HT29; log10 conc −6.9,100%
same,Percent Growth,HT29; log10 conc −7.9,104%
same,Percent Growth,HT29; log10 conc −8.9,112%
same,TGI,SNB-75,3.80E−06
same,Mean Optical Densities,SNB-75; Log 10 Concentration −4.9,0.028
same,Percent Growth,SNB-75; Log 10 Concentration −4.9,−79%
same,Mean Optical Densities,SNB-75; Log 10 Concentration −5.9,0.815
same,Percent Growth,SNB-75; Log 10 Concentration −5.9,73%
same,Mean Optical Densities,SNB-75; Log 10 Concentration −6.9,1.024
same,Percent Growth,SNB-75; Log 10 Concentration −6.9,96%
same,Mean Optical Densities,SNB-75; Log 10 Concentration −7.9,1.033
same,Percent Growth,SNB-75; Log 10 Concentration −7.9,97%
same,Mean Optical Densities,SNB-75; Log 10 Concentration −8.9,1.143
same,Percent Growth,SNB-75; Log 10 Concentration −8.9,108%
same,TGI,U251,8.51E−07
same,Mean Optical Densities,U251; Log 10 Concentration −4.9,−0.012
same,Percent Growth,U251; Log 10 Concentration −4.9,−100%
same,Mean Optical Densities,U251; Log 10 Concentration −5.9,0.088
same,Percent Growth,U251; Log 10 Concentration −5.9,−17%
same,Mean Optical Densities,U251; Log 10 Concentration −6.9,1.908
same,Percent Growth,U251; Log 10 Concentration −6.9,81%
same,Mean Optical Densities,U251; Log 10 Concentration −7.9,2.018
same,Percent Growth,U251; Log 10 Concentration −7.9,86%
same,Mean Optical Densities,U251; Log 10 Concentration −8.9,2.129
same,Percent Growth,U251; Log 10 Concentration −8.9,91%
same,TGI,SF-295,3.25E−06
same,Mean Optical Densities,SF-295; Log 10 Concentration −4.9,0.010
same,Percent Growth,SF-295; Log 10 Concentration −4.9,−69%
same,Mean Optical Densities,SF-295; Log 10 Concentration −5.9,0.659
same,Percent Growth,SF-295; Log 10 Concentration −5.9,49%
same,Mean Optical Densities,SF-295; Log 10 Concentration −6.9,1.244
same,Percent Growth,SF-295; Log 10 Concentration −6.9,94%
same,Mean Optical Densities,SF-295; Log 10 Concentration −7.9,1.279
same,Percent Growth,SF-295; Log 10 Concentration −7.9,97%
same,Mean Optical Densities,SF-295; Log 10 Concentration −8.9,1.284
same,Percent Growth,SF-295; Log 10 Concentration −8.9,97%
same,TGI,SF-268,2.57E−06
same,Mean Optical Densities,SF-268; Log 10 Concentration −4.9,−0.004
same,Percent Growth,SF-268; Log 10 Concentration −4.9,−100%
same,Mean Optical Densities,SF-268; Log 10 Concentration −5.9,0.387
same,Percent Growth,SF-268; Log 10 Concentration −5.9,45%
same,Mean Optical Densities,SF-268; Log 10 Concentration −6.9,0.356
same,Percent Growth,SF-268; Log 10 Concentration −6.9,41%
same,Mean Optical Densities,SF-268; Log 10 Concentration −7.9,0.381
same,Percent Growth,SF-268; Log 10 Concentration −7.9,44%
same,Mean Optical Densities,SF-268; Log 10 Concentration −8.9,0.990
same,Percent Growth,SF-268; Log 10 Concentration −8.9,126%

# Reference: patent US6875451B2, “Compositions and methods for the treatment of primary and metastatic neoplastic diseases using arsenic compounds” (PolaRx Biopharmaceuticals Inc., priority 1997, dated 2005)
